Read-outs that look alike come from different tables or passages of the source. Blank lines part the entries; values can stand above or below the compound they belong to.
Test system: Lox-IMVI melanoma cell line
Assay: Lox-IMVI anti-proliferative assay (growth inhibition, Cell Titer-Glo)
Format: cell-based, human
Conditions: Homo sapiens
How it was run: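 Growth inhibition is assessed over 72 h in RPMI + 10% FBS at 0.2% DMSO, with ATP-based luminescence used as the viability measure. IC50 is fitted from normalized dose-response data.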

[1] = Lox-IMVI melanoma cell line, anti-proliferative assay, read-out: Activity (IC50 activity level)
[2] = IC50 activity level in the cell-based Lox-IMVI anti-proliferative assay, read-out: Activity
[3] = Lox-IMVI anti-proliferative assay, IC50 activity level, read-out: Activity

IC50 [2]: > 1000 nM
SMILES: NC(=O)[C@H]1CC[C@@H](n2c(Nc3c(Cl)cc(Cl)cc3Cl)nc3cnc(NC4CCS(=O)(=O)CC4)nc32)CC1 [Example 92, (1s,4s)-4-(2-((1,1-dioxidotetrahydro-2H-thiopyran-4-yl)amino)-8-((2,4,6-trichlorophenyl)amino)-9H-purin-9-yl)cyclohexane-1-carboxamide]

IC50 [2]: 250 to 500 nM
SMILES: N#Cc1cc(F)c(Nc2nc3cnc(NC4CCC(F)(F)CC4)nc3n2[C@H]2CC[C@@H](C(N)=O)CC2)c(Cl)c1 [Example 378, (1s,4s)-4-(8-(2-chloro-4-cyano-6-fluorophenylamino)-2-(4,4-difluorocyclohexylamino)-9H-purin-9-yl)cyclohexanecarboxamide]

IC50 [2]: 500 to 1000 nM
SMILES: Cc1ccc(Nc2nc3cnc(NC4CCOCC4)nc3n2[C@H]2CC[C@@H](C(N)=O)CC2)c(F)c1F [Example 83, (1s,4s)-4-(8-(2,3-difluoro-4-methylphenylamino)-2-(tetrahydro-2H-pyran-4-ylamino)-9H-purin-9-yl)cyclohexanecarboxamide]

IC50 [1]: < 250 nM
SMILES: C[C@]1(C(N)=O)CC[C@@H](n2c(Nc3c(F)cc(Cl)cc3Cl)nc3cnc(N[C@H]4CCC[C@H](O)C4)nc32)CC1 [Example 612, (1R,4s)-4-(8-(2,4-dichloro-6-fluorophenylamino)-2-((1S,3S)-3-hydroxycyclohexylamino)-9H-purin-9-yl)-1-methylcyclohexanecarboxamide]

IC50 [1]: > 1000 nM
SMILES: CC(C)OC(=O)N1CCC[C@@H](Nc2ncc3nc(Nc4c(F)cc(F)cc4F)n([C@H]4CC[C@@H](C(N)=O)CC4)c3n2)C1 [Example 772, (R)-isopropyl 3-(9-((1s,4S)-4-carbamoylcyclohexyl)-8-(2,4,6-trifluorophenylamino)-9H-purin-2-ylamino)piperidine-1-carboxylate]

IC50 [2]: > 1000 nM
SMILES: NC(=O)[C@H]1CC[C@@H](n2c(Nc3c(F)cc(F)cc3F)nc3cnc(N[C@@H]4CCC[C@H]4O)nc32)CC1 [Example 249, (1S,4s)-4-(2-((1R,2R)-2-hydroxycyclopentylamino)-8-(2,4,6-tnfluorophenylamino)-9H-purin-9-yl)cyclohexanecarboxamide]

IC50 [3]: 250 to 500 nM
SMILES: C[C@]1(C(N)=O)CC[C@@H](n2c(Nc3c(F)cc(C#N)cc3Cl)nc3cnc(N[C@@H]4CCC[C@H](O)C4)nc32)CC1 [Example 568, (1S,4s)-4-(8-(2-chloro-4-cyano-6-fluorophenylamino)-2-((1R,3S)-3-hydroxycyclohexylamino)-9H-purin-9-yl)-1-methylcyclohexanecarboxamide]

IC50 [1]: > 1000 nM
SMILES: N#Cc1cc(F)c(Nc2nc3cnc(NC4CCC(c5ncno5)CC4)nc3n2[C@H]2CC[C@@H](C(N)=O)CC2)c(Cl)c1 (stereo partly shown) [Example 680, (1s,4s)-4-(2-(4-(1,2,4-oxadiazol-5-yl)cyclohexylamino)-8-(2-chloro-4-cyano-6-fluorophenylamino)-9H-purin-9-yl)cyclohexanecarboxamide]

IC50 [3]: < 250 nM
SMILES: C[C@@H](CO)Nc1ncc2nc(Nc3c(Cl)cc(F)cc3Cl)n([C@H]3CC[C@@](C)(C(N)=O)CC3)c2n1 [Example 551, (1R,4s)-4-(8-(2,6-dichloro-4-fluorophenylamino)-2-((S)-1-hydroxypropan-2-ylamino)-9H-purin-9-yl)-1-methylcyclohexanecarboxamide]

IC50 [2]: > 1000 nM
SMILES: NC(=O)[C@H]1CC[C@@H](n2c(Nc3c(F)cc(Cl)cc3F)nc3cnc(NC4CC5(COC5)C4)nc32)CC1 [Example 176, (1s,4s)-4-(2-(2-oxaspiro[3.3]heptan-6-ylamino)-8-(4-chloro-2,6-difluorophenylamino)-9H-purin-9-yl)cyclohexanecarboxamide]

IC50 [3]: > 1000 nM
SMILES: C[C@]1(C(N)=O)CC[C@@H](n2c(Nc3c(Cl)cc(C(F)(F)F)cc3Cl)nc3cnc(NC4CC(F)(F)C4)nc32)CC1 [Example 584, (1s,4s)-4-(8-(2,6-dichloro-4-(trifluoromethyl)phenylamino)-2-(3,3-difluorocyclobutylamino)-9H-purin-9-yl)-1-methylcyclohexanecarboxamide]

IC50 [3]: > 1000 nM
SMILES: C[C@H]1COCC[C@@H]1Nc1ncc2nc(Nc3c(F)cc(F)cc3F)n([C@H]3CC[C@@H](C(N)=O)CC3)c2n1 [Example 510, (1R,4s)-4-(2-((3R,4S)-3-methyltetrahydro-2H-pyran-4-ylamino)-8-(2,4,6-trifluorophenylamino)-9H-purin-9-yl)cyclohexanecarboxamide]

More lines, now with the values behind:

SMILES: CC(C)OC(=O)N1CCC[C@@H](Nc2ncc3nc(Nc4c(Cl)cc(F)cc4Cl)n([C@H]4CC[C@@H](C(N)=O)CC4)c3n2)C1 [Example 775, (R)-isopropyl 3-(9-((1s,4S)-4-carbamoylcyclohexyl)-8-(2,6-dichloro-4-fluorophenylamino)-9H-purin-2-ylamino)piperidine-1-carboxylate]
IC50 [1]: > 1000 nM

SMILES: CC(C)OC(=O)N1CCC[C@@H](Nc2ncc3nc(Nc4c(F)cc(Cl)cc4F)n([C@H]4CC[C@@H](C(N)=O)CC4)c3n2)C1 [Example 773, (R)-isopropyl 3-(9-((1s,4S)-4-carbamoylcyclohexyl)-8-(4-chloro-2,6-difluorophenylamino)-9H-purin-2-ylamino)piperidine-1-carboxylate]
IC50 [1]: 500 to 1000 nM

SMILES: C[C@]1(C(N)=O)CC[C@@H](n2c(Nc3c(Cl)cc(F)cc3Cl)nc3cnc(N[C@@H]4CCC[C@@H](O)C4)nc32)CC1 [Example 621, (1S,4s)-4-(8-(2,6-dichloro-4-fluorophenylamino)-2-((1R,3R)-3-hydroxycyclohexylamino)-9H-purin-9-yl)-1-methylcyclohexanecarboxamide]
IC50 [1]: > 1000 nM

SMILES: NC(=O)[C@H]1CC[C@@H](n2c(Nc3c(F)cc(F)cc3F)nc3cnc(N[C@@H]4CCCC[C@H](O)C4)nc32)CC1 [Example 434, (1S,4s)-4-(2-((1R,3S)-3-hydroxycycloheptylamino)-8-(2,4,6-trifluorophenylamino)-9H-purin-9-yl)cyclohexanecarboxamide]
IC50 [3]: > 1000 nM

SMILES: NC(=O)[C@H]1CC[C@@H](n2c(Nc3cc(Cl)ccc3F)nc3cnc(N[C@H]4COC[C@@H]4O)nc32)CC1 [Example 320, (1R,4s)-4-(8-(5-chloro-2-fluorophenylamino)-2-((3S,4R)-4-hydroxytetrahydrofuran-3-ylamino)-9H-purin-9-yl)cyclohexanecarboxamide]
IC50 [2]: > 1000 nM

SMILES: NC(=O)[C@H]1CC[C@@H](n2c(Nc3c(F)cccc3F)nc3cnc(N[C@@H]4CC[C@@H](O)C4)nc32)CC1 [Example 209, (1S,4s)-4-(8-(2,6-difluorophenylamino)-2-((1R,3R)-3-hydroxycyclopentylamino)-9H-purin-9-yl)cyclohexanecarboxamide]
IC50 [2]: > 1000 nM

SMILES: CC(C)N1CCC[C@@H](Nc2ncc3nc(Nc4c(Cl)cc(Cl)cc4Cl)n([C@H]4CC[C@@H](C(N)=O)CC4)c3n2)C1 [Example 738, (1S,4s)-4-(2-((R)-1-isopropylpiperidin-3-ylamino)-8-(2,4,6-trichlorophenylamino)-9H-purin-9-yl)cyclohexanecarboxamide]
IC50 [1]: > 1000 nM

SMILES: Cc1cc(F)cc(Cl)c1Nc1nc2cnc(NC3CCOCC3)nc2n1[C@H]1CC[C@@H](C(N)=O)CC1 [Example 74, (1s,4s)-4-(8-(2-chloro-4-fluoro-6-methylphenylamino)-2-(tetrahydro-2H-pyran-4-ylamino)-9H-purin-9-yl)cyclohexanecarboxamide]
IC50 [2]: > 1000 nM

SMILES: NC(=O)[C@H]1CC[C@@H](n2c(Nc3c(Cl)cc(C(F)(F)F)cc3Cl)nc3cnc(N[C@@H]4CCC[C@H](O)C4)nc32)CC1 [Example 454, (1S,4s)-4-(8-(2,6-dichloro-4-(trifluoromethyl)phenylamino)-2-((1R,3S)-3-hydroxycyclohexylamino)-9H-purin-9-yl)cyclohexanecarboxamide]
IC50 [3]: 500 to 1000 nM

SMILES: NC(=O)[C@H]1CC[C@@H](n2c(Nc3c(Cl)cc(F)cc3Cl)nc3cnc(NC4CCC(c5ncno5)CC4)nc32)CC1 (stereo partly shown) [Example 679, (1s,4s)-4-(2-(4-(1,2,4-oxadiazol-5-yl)cyclohexylamino)-8-(2,6-dichloro-4-fluorophenylamino)-9H-purin-9-yl)cyclohexanecarboxamide]
IC50 [1]: > 1000 nM

SMILES: NC(=O)[C@H]1CC[C@@H](n2c(Nc3c(Cl)cc(Cl)cc3Cl)nc3cnc(N[C@@H]4CCCOC4)nc32)CC1 [Example 111, (1S,4s)-4-(2-((R)-tetrahydro-2H-pyran-3-ylamino)-8-(2,4,6-trichlorophenylamino)-9H-purin-9-yl)cyclohexanecarboxamide]
IC50 [2]: > 1000 nM

SMILES: NC(=O)[C@H]1CC[C@@H](n2c(Nc3c(F)cc(F)cc3F)nc3cnc(N[C@@H]4CCOC4)nc32)CC1 [Example 530, (1S,4s)-4-(2-((R)-tetrahydrofuran-3-ylamino)-8-(2,4,6-trifluorophenylamino)-9H-purin-9-yl)cyclohexanecarboxamide]
IC50 [3]: 500 to 1000 nM

SMILES: NC(=O)[C@H]1CC[C@@H](n2c(Nc3ccc(Cl)c(F)c3F)nc3cnc(N[C@@H]4CCC[C@H]4O)nc32)CC1 [Example 258, (1S,4s)-4-(8-(4-chloro-2,3-difluorophenylamino)-2-((1R,2R)-2-hydroxycyclopentylamino)-9H-purin-9-yl)cyclohexanecarboxamide]
IC50 [2]: > 1000 nM

SMILES: Cc1cc(Nc2nc3cnc(NC4CCOCC4)nc3n2[C@H]2CC[C@@H](C(N)=O)CC2)c(F)cc1Cl [Example 71, (1s,4s)-4-(8-(4-chloro-2-fluoro-5-methylphenylamino)-2-(tetrahydro-2H-pyran-4-ylamino)-9H-purin-9-yl)cyclohexanecarboxamide]
IC50 [2]: > 1000 nM

SMILES: NC(=O)[C@H]1CC[C@@H](n2c(Nc3c(Cl)cc(F)cc3Cl)nc3cnc(N[C@@H]4CCC(F)(F)C4)nc32)CC1 [Example 586, (1S,4s)-4-(8-(2,6-dichloro-4-fluorophenylamino)-2-((R)-3,3-difluorocyclopentylamino)-9H-purin-9-yl)cyclohexanecarboxamide]
IC50 [3]: < 250 nM

SMILES: NC(=O)[C@H]1CC[C@@H](n2c(Nc3c(Cl)cc(F)cc3Cl)nc3cnc(NC4COCC4O)nc32)CC1 (stereo partly shown) [Example 183, (1s,4s)-4-(8-(2,6-dichloro-4-fluorophenylamino)-2-(4-hydroxytetrahydrofuran-3-ylamino)-9H-purin-9-yl)cyclohexanecarboxamide]
IC50 [2]: > 1000 nM

From patent publication US11590139B2, “Substituted aminopurine compounds, compositions thereof, and methods of treatment therewith” (Signal Pharmaceuticals, LLC, priority 2014, dated 2023)
